Data published in patent publication US11147881B2, “Controlled drug release liposome compositions and methods thereof” (TAIWAN LIPOSOME COMPANY, LTD., priority 2013, dated 2021).
Each block holds one compound with its values, some of them ahead of it.

Legend:
[1] = Precipitation study of irinotecan with mono- and polyvalent counterion donors; assay type: physicochemical
Procedure: (§1) To examine the precipitation, therapeutic agent solution(s) and counterion donor(s), or therapeutic agent solution(s) and combination of counterion donors were mixed, followed by vigorous agitation and high speed centrifugation to separate insoluble precipitate and free form therapeutic agent(s). The concentration of the free form therapeutic agent(s) was determined by measuring the corresponding absorbance with a plate reader.
(§2) Various compositions were prepared by mixing 60 mg/mL of irinotecan solution and liposomes with 1 mM to 22.5 mM of dextran sulfate (molecular weight 1,600), or with 300 mM of ammonium sulfate and 1 mM to 22.5 mM of dextran sulfate (molecular weight 1,600), followed by vigorous agitation by vortex and centrifugation at 21,460×g for 30 minutes to separate insoluble precipitate from free-form irinotecan. The volume ratio for mixing the irinotecan solution and the counterion donor solution was 1:2, with the final equivalent counterion donor concentrations shown in Table 13.

[2] = Precipitation study of vinorelbine with mono- and polyvalent counterion donors; assay type: physicochemical
Procedure: As shown in Example 7, the percentage of encapsulated vinorelbine remaining after plasma incubation is adjustable according to the present invention. The percentage of encapsulated therapeutic agent remaining after plasma incubation can be monitored by precipitation among encapsulated therapeutic agent(s) and counterion donor(s) in the aqueous environment as in FIG. 1, FIG. 5, and FIG. 6. The counterion donors could be selected from monovalent counterion donor(s), polyvalent counterion donor(s), or a combination thereof.
as §1
as §2, with “vinorelbine” for “irinotecan”, “vinorelbine.” for “irinotecan.”, “12.” for “13.”

[3] = AS = 0 mM, DS = 0.67 mM (5.27 mEq/L)
[4] = AS = 0 mM, DS = 2.5 mM (19.68 mEq/L)
[5] = AS = 0 mM, DS = 5 mM (39.35 mEq/L)
[6] = AS = 0 mM, DS = 15 mM (118.05 mEq/L)
[7] = AS = 200 mM, DS = 0 mM (0 mEq/L)
[8] = AS = 200 mM, DS = 0.67 mM (5.27 mEq/L)
[9] = AS = 200 mM, DS = 2.5 mM (19.68 mEq/L)
[10] = AS = 200 mM, DS = 5 mM (39.35 mEq/L)
[11] = AS = 200 mM, DS = 15 mM (118.05 mEq/L)

Percentage of free-form CPT11 remaining ([1]; AS = 0 mM, DS = 0 mM): 103.4%
Percentage of free-form CPT11 remaining [1, 3]: 82.0%
Percentage of free-form CPT11 remaining ([1]; AS = 0 mM, DS = 1.6 mM (12.59 mEq/L)): 50.9%
Percentage of free-form CPT11 remaining [1, 4]: 27.3%
Percentage of free-form CPT11 remaining [1, 5]: 2.3%
Percentage of free-form CPT11 remaining [1, 6]: 3.8%
Percentage of free-form CPT11 remaining [1, 7]: 101.1%
Percentage of free-form CPT11 remaining [1, 8]: 83.8%
Percentage of free-form CPT11 remaining ([1]; AS = 200 mM, DS = 1.6 mM (12.59 mEq/L)): 59.4%
Percentage of free-form CPT11 remaining [1, 9]: 38.3%
Percentage of free-form CPT11 remaining [1, 10]: 9.7%
Percentage of free-form CPT11 remaining [1, 11]: 9.0%
visible precipitation with sodium dextran sulfate ([1]; FIG. 6 left): precipitation
visible precipitation with ammonium sulfate ([1]; FIG. 6 right): no visible precipitation
enhancement of free-form irinotecan by ammonium sulfate (as compared to DS alone) ([1]; maximum, at DS of 19.68 mEq/L): up to 11%
Structure (SMILES): CCc1c2c(nc3ccc(OC(=O)N4CCC(N5CCCCC5)CC4)cc13)-c1cc3c(c(=O)n1C2)COC(=O)[C@]3(O)CC [irinotecan]

Percentage of free-form VNB remaining ([2]; AS = 0 mM, DS = 0 mM): 100.7%
Percentage of free-form VNB remaining [2, 3]: 87.1%
Percentage of free-form VNB remaining [2, 4]: 54.0%
Percentage of free-form VNB remaining [2, 5]: 11.0%
Percentage of free-form VNB remaining [2, 6]: 5.4%
Percentage of free-form VNB remaining [2, 7]: 97.6%
Percentage of free-form VNB remaining [2, 8]: 83.3%
Percentage of free-form VNB remaining [2, 9]: 59.0%
Percentage of free-form VNB remaining [2, 10]: 21.2%
Percentage of free-form VNB remaining [2, 11]: 5.7%
visible precipitation with sodium dextran sulfate ([2]; FIG. 5 left): precipitation
visible precipitation with ammonium sulfate ([2]; FIG. 5 right): no visible precipitation
enhancement of free-form vinorelbine by ammonium sulfate (as compared to DS alone) ([2]; maximum, at DS of 39.35 mEq/L): up to 10.2%
Structure (SMILES): CCC1=C[C@@H]2CN(C1)Cc1c([nH]c3ccccc13)[C@@](C(=O)OC)(c1cc3c(cc1OC)N(C)[C@H]1[C@@](O)(C(=O)OC)[C@H](OC(C)=O)[C@]4(CC)C=CCN5CC[C@]31[C@@H]54)C2 [vinorelbine]
